Measurements taken from patent publication US20200246316A1, “METHODS OF TREATING POST-SURGICAL PAIN WITH A THIAZOLINE ANTI-HYPERALGESIC AGENT” (CERSCI THERAPEUTICS, INC., priority 2019, published 2020).
Values joined by “and” are separate entries in the source; they are usually repeats but may differ in a detail not shown here. Identical values can stand only once. “Also recorded” adds a separate entry of the source. Counter-ions that a name gives are not always drawn. Like-named read-outs stand apart in the source and are kept apart here.

Legend:
PN-mediated cytotoxicity = assay: Cell-based assays of PN-mediated cytotoxicity
Description: (§1) In cell-based assays of PN-mediated cytotoxicity, Compound 1 is protective. […] Chemically, Compound 1 can also react stoichiometrically with peroxynitrite to form a para-nitro adduct. Without being bound by theory, by targeting and removing peroxynitrite and peroxide, Compound 1 can disrupt the ensuing cascades that lead to hypersensitivity (protein modification, ion channel hyperexcitation) thus providing a long duration event in terms of pain relief.

peroxynitrite = assay: Models of protein nitration; type: biochemical; conditions: physiological conditions (neutral pH)
Description: as §1

[1] = system: lactoperoxidase oxidation (mediated by peroxide); assay: Lactoperoxidase oxidation (mediated by peroxide); type: biochemical; conditions: physiological conditions (neutral pH)
Description: as §1

[2] = system: STZ-induced mechanical allodynia; assay: Streptozotocin (STZ) diabetic neuropathy model; type: in vivo, mice; conditions: FIG. 14
Experimental: Streptozotocin (STZ) destroys insulin-producing cells and generates a diabetic phenotype in mice. Animals were dosed with STZ on day −7. By day 0, animals are hyperglycemic and hyperalgesic (day 0 BL).

[3] = system: rat models of diabetic neuropathy; assay: Rat models of diabetic neuropathy (streptozotocin- and methylglyoxal-induced); type: in vivo; conditions: mono-hydrochloride
Description: In various embodiments, Compound 1 is efficacious in in vivo animal models of acute post-incisional hyperalgesia, both prophylactically and palliatively. […] In various embodiments, less than about 1%, 0.8%, 0.6%, 0.4%, 0.2%, 0.1%, 0.08%, 0.06%, 0.04%, 0.02%, or 0.01% of Compound 1 in blood plasma penetrates the BBB.

[4] = Protein binding across species; type: in vitro ADME
CYP1A2 = molecular target: T1, CYP1A2 (Homo sapiens, UniProt P05177); assay: CYP inhibition in human liver microsomes; type: in vitro ADME
T1 construct: tissue BD Gentest; host or cells: human liver microsomes
T1 sequence (P05177 1-516): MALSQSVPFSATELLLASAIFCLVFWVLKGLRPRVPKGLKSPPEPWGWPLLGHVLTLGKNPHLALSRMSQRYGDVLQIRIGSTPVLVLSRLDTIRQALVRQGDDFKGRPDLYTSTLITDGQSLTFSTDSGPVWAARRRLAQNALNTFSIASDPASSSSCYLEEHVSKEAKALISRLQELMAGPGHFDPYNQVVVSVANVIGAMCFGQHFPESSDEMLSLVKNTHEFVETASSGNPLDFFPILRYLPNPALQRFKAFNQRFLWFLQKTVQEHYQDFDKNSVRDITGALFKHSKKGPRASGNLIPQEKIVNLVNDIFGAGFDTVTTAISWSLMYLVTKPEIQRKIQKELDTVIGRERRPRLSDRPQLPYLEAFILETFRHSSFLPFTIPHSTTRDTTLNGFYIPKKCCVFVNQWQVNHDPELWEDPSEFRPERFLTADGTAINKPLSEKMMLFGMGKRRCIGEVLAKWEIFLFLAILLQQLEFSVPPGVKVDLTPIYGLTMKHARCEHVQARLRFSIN
Experimental: (§2) At varying concentrations, Compound 1 was incubated with human liver microsomes (HLM) in the presence of known substrates (see below) of specific CYP isoforms, in order to measure inhibition induced by Compound 1. Microsomes were incubated with known inhibitors (positive controls) of each CYP isoform, in the presence of substrate, in order to measure the metabolic activity of the microsomes.

CYP2C19 = molecular target: T2, CYP2C19 (Homo sapiens, UniProt P33261); assay: CYP inhibition in human liver microsomes; type: in vitro ADME
T2 construct: tissue BD Gentest; host or cells: human liver microsomes
T2 sequence (P33261 whole entry): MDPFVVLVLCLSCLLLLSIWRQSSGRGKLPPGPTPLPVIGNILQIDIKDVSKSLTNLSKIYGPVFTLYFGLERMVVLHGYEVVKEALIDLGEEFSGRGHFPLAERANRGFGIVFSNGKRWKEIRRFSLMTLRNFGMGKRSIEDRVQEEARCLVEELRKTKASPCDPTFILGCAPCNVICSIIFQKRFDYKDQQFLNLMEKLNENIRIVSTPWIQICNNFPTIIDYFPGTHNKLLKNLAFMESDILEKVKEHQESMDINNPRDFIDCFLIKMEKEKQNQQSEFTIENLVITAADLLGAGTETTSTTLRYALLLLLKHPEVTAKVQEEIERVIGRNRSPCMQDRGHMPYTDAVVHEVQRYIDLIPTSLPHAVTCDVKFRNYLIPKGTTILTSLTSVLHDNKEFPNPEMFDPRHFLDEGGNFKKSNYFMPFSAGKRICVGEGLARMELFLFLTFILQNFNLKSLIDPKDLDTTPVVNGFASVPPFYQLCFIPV
Experimental: as §2

CYP2C9 = molecular target: T3, CYP2C9 (Homo sapiens, UniProt P11712); assay: CYP inhibition in human liver microsomes; type: in vitro ADME
T3 construct: tissue BD Gentest; host or cells: human liver microsomes
T3 sequence (P11712 whole entry): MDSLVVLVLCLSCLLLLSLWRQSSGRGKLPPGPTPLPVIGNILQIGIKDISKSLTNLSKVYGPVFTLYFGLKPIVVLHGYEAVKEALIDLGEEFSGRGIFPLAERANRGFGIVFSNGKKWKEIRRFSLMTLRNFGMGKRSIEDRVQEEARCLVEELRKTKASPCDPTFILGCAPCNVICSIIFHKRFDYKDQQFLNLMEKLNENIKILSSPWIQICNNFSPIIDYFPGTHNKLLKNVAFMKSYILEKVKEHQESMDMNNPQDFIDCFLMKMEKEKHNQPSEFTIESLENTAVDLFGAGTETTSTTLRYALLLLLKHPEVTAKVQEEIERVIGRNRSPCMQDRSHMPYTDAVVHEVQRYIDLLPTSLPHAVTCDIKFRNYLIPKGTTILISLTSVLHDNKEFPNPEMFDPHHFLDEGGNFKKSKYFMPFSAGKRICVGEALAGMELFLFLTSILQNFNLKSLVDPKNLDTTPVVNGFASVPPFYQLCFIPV
Experimental: as §2

CYP2D6 = molecular target: T4, CYP2D6 (Homo sapiens, UniProt P10635); assay: CYP inhibition in human liver microsomes; type: in vitro ADME
T4 construct: tissue BD Gentest; host or cells: human liver microsomes
T4 sequence (P10635 whole entry): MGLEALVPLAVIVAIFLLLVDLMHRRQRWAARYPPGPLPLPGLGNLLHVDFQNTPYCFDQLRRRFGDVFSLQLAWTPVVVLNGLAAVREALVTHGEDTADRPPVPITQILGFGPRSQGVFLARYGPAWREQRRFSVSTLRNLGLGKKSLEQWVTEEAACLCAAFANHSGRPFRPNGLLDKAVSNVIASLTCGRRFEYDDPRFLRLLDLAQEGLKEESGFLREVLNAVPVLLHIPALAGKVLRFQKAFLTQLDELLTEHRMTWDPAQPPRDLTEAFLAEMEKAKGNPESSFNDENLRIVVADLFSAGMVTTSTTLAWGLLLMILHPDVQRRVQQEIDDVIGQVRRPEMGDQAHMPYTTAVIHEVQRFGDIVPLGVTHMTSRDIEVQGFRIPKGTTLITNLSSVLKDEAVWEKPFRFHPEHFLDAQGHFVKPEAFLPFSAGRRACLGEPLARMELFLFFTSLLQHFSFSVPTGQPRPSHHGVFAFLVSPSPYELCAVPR
Experimental: as §2

CYP3A4 = molecular target: T5, CYP3A4 (Homo sapiens, UniProt P08684); assay: CYP inhibition in human liver microsomes; type: in vitro ADME
T5 construct: tissue BD Gentest; host or cells: human liver microsomes
T5 sequence (P08684 whole entry): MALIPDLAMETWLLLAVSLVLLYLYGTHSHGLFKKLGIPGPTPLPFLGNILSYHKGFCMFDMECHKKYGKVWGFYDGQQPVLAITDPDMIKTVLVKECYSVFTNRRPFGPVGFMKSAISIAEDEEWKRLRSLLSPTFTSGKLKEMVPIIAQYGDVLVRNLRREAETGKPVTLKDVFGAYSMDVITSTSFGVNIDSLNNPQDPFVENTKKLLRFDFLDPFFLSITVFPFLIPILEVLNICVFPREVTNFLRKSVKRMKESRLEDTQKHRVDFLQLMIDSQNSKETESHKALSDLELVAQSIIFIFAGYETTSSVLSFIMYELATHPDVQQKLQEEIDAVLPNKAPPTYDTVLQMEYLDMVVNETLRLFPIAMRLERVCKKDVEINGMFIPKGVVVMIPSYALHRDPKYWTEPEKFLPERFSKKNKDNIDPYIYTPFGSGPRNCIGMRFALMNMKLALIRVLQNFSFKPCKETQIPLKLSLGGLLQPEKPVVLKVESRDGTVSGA
Experimental: as §2

MATE [5] = molecular target: T6, MATE (Homo sapiens, UniProt Q86VL8); assay: Inhibition of uptake (SLC) transporters; type: in vitro ADME; conditions: MATE2-K; HEK293 cells, probe [14C]-metformin (10 μM), pH 8.5, 0.3-600 μM tested
T6 construct: expressed in transfected cells; host or cells: HEK293 cells
T6 sequence (Q86VL8 1-566 isoform Q86VL8-3): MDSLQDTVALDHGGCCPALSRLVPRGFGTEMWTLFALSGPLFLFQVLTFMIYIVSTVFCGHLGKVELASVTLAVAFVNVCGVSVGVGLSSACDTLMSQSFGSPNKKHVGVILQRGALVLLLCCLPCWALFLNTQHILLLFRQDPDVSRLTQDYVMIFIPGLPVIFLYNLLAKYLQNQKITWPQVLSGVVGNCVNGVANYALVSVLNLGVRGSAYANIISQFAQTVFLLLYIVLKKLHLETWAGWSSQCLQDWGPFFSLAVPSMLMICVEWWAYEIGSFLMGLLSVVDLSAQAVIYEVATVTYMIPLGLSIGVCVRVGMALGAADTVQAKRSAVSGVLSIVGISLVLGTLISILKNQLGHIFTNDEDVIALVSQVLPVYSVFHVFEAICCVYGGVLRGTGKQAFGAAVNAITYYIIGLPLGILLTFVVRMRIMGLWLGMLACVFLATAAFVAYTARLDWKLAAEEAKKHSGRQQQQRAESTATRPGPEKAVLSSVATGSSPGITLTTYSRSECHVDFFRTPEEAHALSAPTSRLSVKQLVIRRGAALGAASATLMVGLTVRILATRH

MATE [6] = molecular target: T7, MATE (Homo sapiens, UniProt Q96FL8); assay: Inhibition of uptake (SLC) transporters; type: in vitro ADME; conditions: MATE1; HEK293 cells, probe [14C]-metformin (10 μM), pH 8.5, 0.3-600 μM tested
T7 construct: expressed in transfected cells; host or cells: HEK293 cells
T7 sequence (Q96FL8 whole entry): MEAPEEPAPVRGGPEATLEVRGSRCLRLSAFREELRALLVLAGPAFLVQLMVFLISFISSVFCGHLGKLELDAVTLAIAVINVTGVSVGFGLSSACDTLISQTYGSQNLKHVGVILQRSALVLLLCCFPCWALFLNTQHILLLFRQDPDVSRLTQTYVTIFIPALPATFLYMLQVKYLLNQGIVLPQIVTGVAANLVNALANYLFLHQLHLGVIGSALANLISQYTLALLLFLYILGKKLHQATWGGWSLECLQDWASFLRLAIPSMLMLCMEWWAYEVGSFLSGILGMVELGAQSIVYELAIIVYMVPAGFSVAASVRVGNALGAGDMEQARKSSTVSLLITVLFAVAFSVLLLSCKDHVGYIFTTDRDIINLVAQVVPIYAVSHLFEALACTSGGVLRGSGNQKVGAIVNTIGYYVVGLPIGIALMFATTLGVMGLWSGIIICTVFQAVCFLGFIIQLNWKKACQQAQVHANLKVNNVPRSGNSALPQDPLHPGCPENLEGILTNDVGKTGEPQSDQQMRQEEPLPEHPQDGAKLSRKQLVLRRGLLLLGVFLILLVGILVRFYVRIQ

BCRP = BCRP (Homo sapiens, UniProt Q9UNQ0); assay: Inhibition of efflux (ABC) transporters
BCRP, sequence (Q9UNQ0 whole entry): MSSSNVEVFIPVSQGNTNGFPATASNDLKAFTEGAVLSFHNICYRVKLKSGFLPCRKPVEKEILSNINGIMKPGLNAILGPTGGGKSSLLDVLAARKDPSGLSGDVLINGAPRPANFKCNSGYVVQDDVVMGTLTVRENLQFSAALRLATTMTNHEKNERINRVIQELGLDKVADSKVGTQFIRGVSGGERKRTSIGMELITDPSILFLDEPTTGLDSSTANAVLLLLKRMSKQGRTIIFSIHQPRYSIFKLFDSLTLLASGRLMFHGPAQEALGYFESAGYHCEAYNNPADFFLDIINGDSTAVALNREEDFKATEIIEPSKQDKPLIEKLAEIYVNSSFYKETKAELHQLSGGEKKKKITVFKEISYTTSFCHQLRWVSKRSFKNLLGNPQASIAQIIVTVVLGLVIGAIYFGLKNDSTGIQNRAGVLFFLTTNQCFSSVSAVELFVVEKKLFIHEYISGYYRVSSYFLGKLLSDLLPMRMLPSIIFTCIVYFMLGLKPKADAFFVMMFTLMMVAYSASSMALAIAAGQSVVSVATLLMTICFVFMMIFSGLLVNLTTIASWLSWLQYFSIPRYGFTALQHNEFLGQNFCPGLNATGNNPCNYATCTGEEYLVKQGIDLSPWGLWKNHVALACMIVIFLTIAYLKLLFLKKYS

[7] = Rat pharmacokinetics after single PO dose; conditions: for Compound 1 Concentration in rat plasma: 100 mg/kg single PO, individual animals
Experimental: In both assays, a deuterated (Compound 1-d4) internal standard was used.
The objective of this non-GLP study was to determine the pharmacokinetics of Compound 1 after a single oral (gavage) dose in rats, and to determine if Compound 1 undergoes epimerization in the rat. Compound 1 was administered to CD® IGS [Crl:CD(SD)] (Sprague Dawley) rats (5/sex/group) as a single oral gavage dose of 100 mg/kg in a vehicle of 0.5% aqueous HPMC. Rats were dosed at a dose volume of 10 mL/kg body weight.

[8] = Rat single dose metabolism/excretion study (urine and feces)
[9] = female, Sprague Dawley (CD IGS, Crl:CD(SD)), rat, plasma, po, 100 mg/kg
[10] = male, Sprague Dawley, rat, plasma, po, 100 mg/kg

CC1(C)SC(Nc2ccccc2O)=N[C@@H]1C(=O)O [Compound 1, (R)-2-(2-hydroxyphenylamino)-5,5-dimethyl-4,5-dihydrothiazole-4-carboxylic acid mono-hydrochloride]
protection from PN-mediated cytotoxicity (PN-mediated cytotoxicity): protective | removal of peroxynitrite in models of protein nitration (peroxynitrite): catalytically remove peroxynitrite | removal of peroxynitrite in lactoperoxidase oxidation [1]: catalytically remove peroxynitrite | STZ-induced mechanical allodynia [2]: blocks STZ-induced mechanical allodynia | allodynia in models of diabetic neuropathy [3]: alleviates allodynia; also recorded: reverses allodynia | protein binding [4]: moderately protein-bound | CYP inhibition (CYP1A2; CYP1A2, up to 100 μM): did not inhibit | IC50 (CYP1A2; CYP1A2, read-out: IC50): > 100 µM | IC50 (CYP1A2; human liver microsomes, known substrate of the CYP isoform, read-out: IC50 (μM) CYP 1A2): > 100 µM | CYP inhibition (CYP2C19; CYP2C19, up to 100 μM): did not inhibit | IC50 (CYP2C19; CYP2C19, read-out: IC50): > 100 µM | IC50 (CYP2C19; human liver microsomes, known substrate of the CYP isoform, read-out: IC50 (μM) CYP 2C19): > 100 µM | CYP inhibition (CYP2C9; CYP2C9, up to 100 μM): did not inhibit | IC50 (CYP2C9; CYP2C9, read-out: IC50): > 100 µM | IC50 (CYP2C9; human liver microsomes, known substrate of the CYP isoform, read-out: IC50 (μM) CYP 2C9): > 100 µM | CYP inhibition (CYP2D6; CYP2D6, up to 100 μM): did not inhibit | IC50 (CYP2D6; CYP2D6, read-out: IC50): > 100 µM | IC50 (CYP2D6; human liver microsomes, known substrate of the CYP isoform, read-out: IC50 (μM) CYP 2D6): > 100 µM | CYP inhibition (CYP3A4; CYP3A4, up to 100 μM): did not inhibit | IC50 (CYP3A4; CYP3A4, read-out: IC50): > 100 µM | IC50 (CYP3A4; human liver microsomes, known substrate of the CYP isoform, read-out: IC50 (μM) CYP 3A4): > 100 µM | IC50 (MATE [5]): > 600 µM | IC50 (MATE [6]): > 600 µM | IC50 (BCRP): > 30 µM | transporter inhibition (BCRP; BCRP): modestly inhibits | Compound 1 Concentration in rat plasma ([7]; Female, 0.5 h post-dose, mono-hydrochloride, 100 mg/kg): 36.4 µg/mL and 44.7 µg/mL and 43.2 µg/mL and 45.4 µg/mL | Compound 1 Concentration in rat plasma ([7]; Female, 1 h post-dose, mono-hydrochloride, 100 mg/kg): 50.1 µg/mL and 63.6 µg/mL and 63.2 µg/mL and 69.7 µg/mL | Compound 1 Concentration in rat plasma ([7]; Female, 2 h post-dose, mono-hydrochloride, 100 mg/kg): 63.1 µg/mL and 58.9 µg/mL and 60.1 µg/mL and 72.8 µg/mL | Compound 1 Concentration in rat plasma ([7]; Female, 4 h post-dose, mono-hydrochloride, 100 mg/kg): 14.4 μg/mL (2×) and 31.5 μg/mL and 32.4 μg/mL and 20.4 μg/mL | Compound 1 Concentration in rat plasma ([7]; Female, 8 h post-dose, mono-hydrochloride, 100 mg/kg): 1.78 µg/mL and 1.80 µg/mL and 4.14 µg/mL and 4.21 µg/mL and 2.23 µg/mL | Compound 1 Concentration in rat plasma ([7]; Female, 24 h post-dose, mono-hydrochloride, 100 mg/kg): 0.250 µg/mL and 0.240 µg/mL and 0.489 µg/mL and 0.482 µg/mL and 0.428 µg/mL | Compound 1 Concentration in rat plasma ([7]; Male, 0.5 h post-dose, mono-hydrochloride, 100 mg/kg): 17.5 µg/mL and 14.0 µg/mL and 11.4 µg/mL and 10.8 µg/mL | Compound 1 Concentration in rat plasma ([7]; Male, 1 h post-dose, mono-hydrochloride, 100 mg/kg): 14.3 µg/mL and 22.6 µg/mL and 14.8 µg/mL and 11.0 µg/mL and 11.8 µg/mL | Compound 1 Concentration in rat plasma ([7]; Male, 2 h post-dose, mono-hydrochloride, 100 mg/kg): 15.7 µg/mL and 14.0 µg/mL and 14.9 µg/mL and 10.7 µg/mL | Compound 1 Concentration in rat plasma ([7]; Male, 4 h post-dose, mono-hydrochloride, 100 mg/kg): 4.82 µg/mL and 13.9 µg/mL and 1.56 µg/mL and 6.65 µg/mL and 3.81 µg/mL | Compound 1 Concentration in rat plasma ([7]; Male, 8 h post-dose, mono-hydrochloride, 100 mg/kg): 2.81 µg/mL and 1.57 µg/mL and 1.53 µg/mL and 3.05 µg/mL | Compound 1 Concentration in rat plasma ([7]; Male, 24 h post-dose, mono-hydrochloride, 100 mg/kg): 0.157 μg/mL and BQL (3×) and 1.04 μg/mL | concentration at 0.5 h [7, 9]: 40800 ng/mL | concentration at 2 h [7, 9]: 62600 ng/mL | concentration at 8 h [7, 9]: 2830 ng/mL | concentration at 24 h [7, 9]: 378 ng/mL | concentration at 0.5 h [7, 10]: 13500 ng/mL | concentration at 4 h [7, 10]: 6150 ng/mL | concentration at 8 h [7, 10]: 2110 ng/mL | concentration at 24 h [7, 10]: 599 ng/mL | epimerization in vivo (chiral methods) ([7]; rat plasma, mono-hydrochloride): no epimerization; also recorded: did not provide any evidence of epimerization | administered compound recovered unchanged [8]: 5-15%
